Here are results for two molecules from ChEMBL document CHEMBL1147953, “9-Nitroanthracene derivative as a precursor of anthraquinone for photodynamic therapy” (Bioorg Med Chem, 2007).

The test system of assay [1] is Escherichia coli. The assay is described as follows: Induction of strand cleavage in pBR322 DNA after irradiation with 5 J/cm^2 assessed as conversion of supercoiled DNA to […] circular form at 200 uM.
Assay [2] has as its system Escherichia coli. The assay is described as follows: Induction of strand cleavage in pBR322 DNA in absence of irradiation assessed as conversion of supercoiled DNA to […] circular form at 200 uM.

Activity calls are given as the source filed them. The calls are words filed in the database; no cut-off is given here.

On to `CN(C)CCCC(=O)Nc1ccc2cc3ccccc3c([N+](=O)[O-])c2c1`, for which, in assay [1], the outcome was Active. Moreover, the result in assay [2] was inactive.

Take `CN(C)CCCC(=O)Nc1ccc2cc3ccccc3cc2c1[N+](=O)[O-]`: the outcome in assay [1] was Active. Also, in assay [2], the outcome was inactive.
